According to PMC11087482, “Discovering allatostatin type-C receptor specific agonists” (Nature Communications, 2024):
In brackets after ≈: the same amount, converted by molar mass. Where two headings read alike, the source gives them in different places. Marks after values point to notes of the source that are not given here. Each block holds one compound with its values, some of them ahead of it. Positions of bridges follow the written chain, without caps; N, C: chain ends. Non-standard residues stand in square brackets, D forms with d. Residues, ends and D or L forms follow the SMILES beside them. pGlu = O=C1CC[C@@H](C(=O)O)N1

Columns and labels:
AlstR-C = test: GloSensor cAMP assay after forskolin stimulation; assay type: cell-based, Thaumetopoea pityocampa; conditions: after 10 µM forskolin
Description: The ability of the hit compounds to activate the Gαi pathway was evaluated using a commercial cAMP assay (GloSensor, Promega). Prior to ligand treatment, cells were stimulated with 10 µM forskolin to elevate intracellular cAMP levels, and the ability of each ligand and control to downregulate cAMP was evaluated after 1 h. […] As an additional control, the ability of the hit compounds to activate a different receptor (5-HTR4) was also assessed using an AP-TGFα assay (Fig. 4k).
HEK293 cells were seeded 30,000 cells per well in DMEM 10% FBS without P/S to Greiner 655094 96-well plates 1 day before the transfection. Following overnight incubation at 37 °C, the cells were cotransfected with plasmids of the desired receptor along with GloSensor^TM cAMP plasmid using Lipofectamine™ 3000 Transfection Reagent and incubated 24 h at 37 °C 5% CO2 incubator. […] The baseline development was measured on a Thermo Scientific Fluoroskan Ascent FL Microplate Fluorometer and Luminometer plate reader following the cell stimulation with 10 μL 10 μM forskolin, approximately 1 h. […] Luminescence was measured at 1 read per well every 2 min, scaling factor was 10. Data were analyzed by calculating the area under the curve (AUC) over the ~2-h measurement period. Statistical significance was measured with ANOVA, and multiple comparisons were done with Dunnett’s Test. […]

T. pityocampa AlstR-C = test: TGF-α shedding assay on HEK293 cells overexpressing the receptor; assay type: cell-based, Thaumetopoea pityocampa; conditions: Gαq/i1, read-out: EC50 (AP-TGFα release)
Description: HEK293 cells were maintained in DMEM (PAN Biotech) supplemented with 10% FBS (Gibco) and 1% Penicillin-Streptomycin (Gibco) at 37 °C in a 5% CO2 incubator. Cells were seeded in 6-well plates before transfection, and Lipofectamine™ 3000 Transfection Reagent (Thermo Fisher Scientific) was used for transfection in compliance with the manufacturer’s instructions.
HEK293 cells were seeded in DMEM 10% FBS without P/S to 6-well plates 1 day before the transfection. Following overnight incubation at 37 °C, the cells were cotransfected with plasmids of the desired receptor (100 ng)[44],[48] or pcDNA3.1, AP-TGFα (250 ng), and Gαq/i1 (10 ng) using Lipofectamine™ 3000 Transfection Reagent and incubated 24 h at 37 °C 5% CO2 incubator. Plasmids used for the TGF-α shedding assay were kindly gifted from Prof. Asuka Inoue[82],[83]. TGF-α Shedding Assay was used to measure the activity of studied compounds[83]. Cell harvesting was accomplished with TrypLE™ Express Enzyme (Gibco) since it was previously noted that trypsinization results in a higher background signal. After reseeding the cells in a 96-well plate, 10x concentrations of the compounds prepared in HBSS were applied for stimulation. For compounds not readily soluble in water, a concentration of 0.01 % (w/v) bovine serum albumin (BSA) in HBSS was used for dilution. Each treatment was performed with four replicas. Alkaline phosphatase activity was measured before and after 1-h and 2-h incubation at room temperature, and the absorbance of the plates at 405 nm was measured. AP-TGF-α release signals were fitted to a four-parameter sigmoidal dose-response curve, and EC50 values were calculated using GraphPad Prism 9.5.

T. pityocampa larvae [1] = test: Toxicity tests, topical application on second instar larvae; assay type: in vivo; conditions: for Mean mortality: highest effect
Description: (§1) Pine processionary moth 2nd instar larvae of Thaumetopoea pityocampa for toxicity tests, adult, and 1st instar larvae of predator Calosoma sycophanta, 2nd instar larvae of potato beetle Leptinotarsa decemlineata were used for side effect assays.
T. pityocampa larvae were collected from red pine trees, Pinus brutia, in Nallıhan district of Ankara, Türkiye, in 2021. Larvae were cultured in 60 (±10) % humidity, 27 (±2) °C, and 16:8 light: dark photoperiod and were fed with red pine needles.
Stock solutions of the molecules were dissolved in DMSO, AST-C peptide was dissolved in PBS supplemented with 0.1% BSA pH 7.4. Dilutions were prepared in PBS supplemented with 0.1% BSA pH 7.4 in 50, 100, 250, 500, 750, and 1000 ppm (mg/L) concentrations and later placed in an ultrasonic bath (Sonorex, Bandelin) for ~10 min at 37 °C until all precipitates had vanished. Toxicity tests were conducted 1 day after larvae collection. 5 µL of doses were applied on the dorsal surface of the head-prothorax junction topically. […] Two negative control groups were prepared as PBS-applied and no application. Following the procedures, larvae were fed with 15 g P. brutia needles. Experiments were carried out on 10 larvae for each dosage, with three repeats.
(§2) Insect deaths were evaluated on the 3rd, 7th, and 14th days in toxicity and side effect experiments. The ones that were not feeding or not responding by a movement to stimulation with a soft-tipped brush were accepted as dead. Percentage mortality values generated on the 14th day were corrected using Abbott’s formula[84]. Statistical analyses were executed with IBM SPSS Statistics (v26.0) and R Studio (2022.02.0), and two-way ANOVA and Tukey test were performed to detect the data’s statistical significance. Lethal concentration values of LC50–90 (dose that produces 50-90% mortality in the population) with 95% confidence intervals (CI) and slopes were obtained using PoloPlus software (LeOra Software, USA) for mortality values assessed on the 14th day for T. pityocampa and the 3rd day for L. decemlineata. The LC50–90 values were considered to be similar if their 95% CIs overlapped (P > 0.05)[85]. Analysis between-subject effects on T. pityocampa larva length; one-way ANOVA tests assessing the impacts of molecule treatment on T. pityocampa larvae on larva length; and analysis of between-subjects effects on T. pityocampa head capsule width, alongside one-way ANOVA tests regarding the effects of molecule treatment on T. pityocampa larvae to head capsule width are detailed in the Source Data File (Source Data Supplementary Data Tables 1–4). Source data is available as Source Data File.

T. pityocampa larvae [2] = test: Larval body allometry (body length, head capsule width) on day 14 of treatment; assay type: in vivo, Thaumetopoea pityocampa; conditions: for head capsule width / total body length: 14th day of treatment; for Larva Length, Mean Difference (I-J) versus Control / head capsule width, Mean Difference (I-J) versus Control: day 14, Tukey HSD, n = 20
Description: In addition, the ability of the identified hit compounds to alter larval body allometry was tested through measuring total body lengths and head capsule widths on the 14th day of treatment (Fig. 7).
as §2

[3] = set-up: method as in PMID 19540423, PMID 20936640; conditions: cited from earlier work
[4] = tested on: Calosoma sycophanta first-instar larvae and adults; test: Side effect tests on predatory insect, topical application; assay type: in vivo; conditions: 1000 ppm topical, days 3, 7, 14
Description: as §1
C. sycophanta adults and T. pityocampa nests were collected from Korkuteli forests in Antalya 2022. T. pityocampa nests were stored at +4 °C to prevent pupae formation. 20 adult C. sycophanta were placed in clear plastic boxes (30 × 45 × 30 cm) with moist soil at the bottom. Adults were fed with T. pityocampa larvae regularly. After mating, C. sycophanta eggs were collected from the soil with a soft tip brush, and eggs were reserved in moist cotton until eggs cracked. Subsequently, C. sycophanta larvae were placed individually in clear, hard plastic cups (180 cm^3) containing moist soil and covered with glass. One T. pityocampa larva per day was added to each cup for feeding. Predator insects were cultured in 65 (±5) % humidity, 25 (±5) °C, and 16:8 light: dark photoperiod.
(§3) Effective molecules of toxicity tests were applied on adults, 1st instar larvae of predator C. sycophanta, and 2nd instar larvae of potato beetle L. decemlineata to evaluate side effects.
C. sycophanta larvae and adults were placed individually in clear, hard plastic cups (180 cc) containing moist soil. 5 µL of 1000 ppm dose was applied topically on the head-prothorax junction’s dorsal surface. 50 larvae and adults were used in the experiments. One T. pityocampa larva per day was added to each cup for feeding. Two negative controls were PBS-applied and no application groups.
as §2, with “Analysis between-subject effects on T. pityocampa larva length; one-way ANOVA tests assessing the impacts of molecule treatment on T. pityocampa larvae on larva length; and analysis of between-subjects effects on T. pityocampa head capsule width, alongside one-way ANOVA tests regarding the effects of molecule treatment on T. pityocampa larvae to head capsule width are detailed in the Source Data File (Source Data Supplementary Data Tables 1–4). Source data is available as Source Data File.” left out

[5] = tested on: Leptinotarsa decemlineata second-instar larvae; test: Side effect tests on potato beetle larvae, topical application; assay type: in vivo; conditions: 1000 ppm topical, second-instar larvae, days 3, 7, 14
Description: as §1
(§4) L. decemlineata larvae were collected from a potato field in Kahramankazan district of Ankara province in 2022. The larvae were cultured in the laboratory under 60% (±10) humidity, 27(±2) °C temperature, and 16:8 light: dark photoperiod with potato plant leaves.
as §3
(§5) 5 µL of 1000 ppm dose were applied topically on the dorsal surface of the head-prothorax junction 2nd instar larvae of potato beetle. 30 larvae were used in assays, and larvae were placed on potato leaves inside the water-filled cups for feeding. Negative control groups were as previously described. Dimilin 25 WP (%25 diflubenzuron) was used as a positive control on L. decemlineata. Experiments were carried out with three repeats.
as §2

[6] = as above; assay type: in vivo; conditions: Leptinotarsa decemlineata, in vivo
Description: as §1, §4, §3, §5, §2

[7] = day 14 mortality, Probit analysis
[8] = Thaumetopoea pityocampa, topical, 336 h, read-out: LC50 (95% CI)
[9] = Thaumetopoea pityocampa, topical, 336 h

Compound: CC[C@H](C)[C@@H]1NC(=O)[C@@H]2CCCN2C(=O)[C@H](CC(N)=O)NC(=O)[C@H](Cc2ccccc2)NC(=O)[C@H](Cc2ccc(O)cc2)NC(=O)[C@@H](NC(=O)[C@H](CCC(N)=O)NC(=O)[C@H](CCCNC(=N)N)NC(=O)[C@H](Cc2ccccc2)NC(=O)[C@H](CCCNC(=N)N)NC(=O)[C@@H](NC(=O)[C@@H]2CCC(=O)N2)C(C)C)CSSC[C@@H](C(=O)N[C@@H](Cc2ccccc2)C(=O)O)NC(=O)[C@H](CO)NC1=O [AST-C, reference compound] ([pGlu]VRFRQCYFNPISCF-OH; disulfide 7-14; C-terminus assumed)
ability to downregulate cAMP (RLU) (AlstR-C): most significant impact
EC50 (T. pityocampa AlstR-C): 0.000623 µM
Mean mortality (T. pityocampa larvae [1]; 14 days post-administration): 100%
LC50 (T. pityocampa larvae [1]; day 14 after the application, Probit analysis): 152 ppm
LC50 (95% CI) (T. pityocampa larvae [1]; [7]): 152.414 (101.993–209.528) mg/L
LC90 (95% CI) (T. pityocampa larvae [1]; [7]): 782.851 (512.785–1616.980) mg/L
head capsule width (T. pityocampa larvae [2]): Statistically significant decreases
total body length (T. pityocampa larvae [2]): Statistically significant decreases
Larva Length, Mean Difference (I-J) versus Control (T. pityocampa larvae [2]): -9,070* mm
head capsule width, Mean Difference (I-J) versus Control (T. pityocampa larvae [2]): -1,105* mm
shelf life and degradation in the environment [3]: comparatively short shelf life and undergoes rapid degradation in the environment

Compound: O=C1c2n[nH]c(-c3ccccc3O)c2C(c2cccc(Oc3ccccc3)c2)N1CC1CCCO1 (stereo not drawn) [D074-0013]
EC50 (T. pityocampa AlstR-C): 1.42 µM
mortality rate (T. pityocampa larvae [1]; 14 days post-administration, highest dose): below 50%
LC50 (T. pityocampa larvae [1]; [8]): > 1000 µg/mL
mortality (T. pityocampa larvae [1]; end of day 7, 1000 ppm): 27%
head capsule width (T. pityocampa larvae [2]): small compared to other molecules
total body length (T. pityocampa larvae [2]): small compared to other molecules
Larva Length, Mean Difference (I-J) versus Control (T. pityocampa larvae [2]): -4,445* mm
Insect deaths (mortality rate) [4]: below 10%
Insect deaths (mortality rate) [5]: below 10%

Compound: O=C(NC(=O)c1c(F)cccc1F)Nc1ccc(Cl)cc1 [Diflubenzuron, diflubenzuron, reference compound]
LC50 at 3 days ([6]; L. decemlineata larvae, positive control, 3rd day mortality): 38.5 µg/mL (≈ 124 µM)
LC50 at 3 days ([6]; potato beetle larvae, after 3 days of application): 38 µg/mL (≈ 122 µM)

Compound: COc1ccc([C@H](CC(=O)NCc2ccncc2)c2cn(Cc3ccc(C)cc3)c3ccccc23)cc1OCc1ccccc1 [V029-3547]
ability to downregulate cAMP (RLU) (AlstR-C): greatest ability to modulate cAMP
EC50 (T. pityocampa AlstR-C): 8.17 µM
Mean mortality (T. pityocampa larvae [1]; 14 days post-administration): 83.7%
LC50 (T. pityocampa larvae [1]; [9]): 406 µg/mL (≈ 682 µM)
LC50 (T. pityocampa larvae [1]; [8]): 406 µg/mL (≈ 682 µM)
mortality (T. pityocampa larvae [1]; after 3 days, >500 ppm): > 63.3%
LC90 (95% CI) (T. pityocampa larvae [1]; [7]): 900.815 (696.503–1634.450) mg/L
Larva Length, Mean Difference (I-J) versus Control (T. pityocampa larvae [2]): -8,705* mm
head capsule width, Mean Difference (I-J) versus Control (T. pityocampa larvae [2]): -1,120* mm
Insect deaths (mortality rate) [4]: below 10%
Insect deaths (mortality rate) [5]: below 10%

Continued, in another order:

EC50 (T. pityocampa AlstR-C): 4.7 µM
Compound: O=C1c2n[nH]c(-c3ccccc3O)c2C(c2cccc(OCc3ccccc3)c2)N1CC1CCCO1 (stereo not drawn) [D074-0034]
LC50 (T. pityocampa larvae [1]; [9]): 443 µg/mL (≈ 920 µM)
LC50 (T. pityocampa larvae [1]; [8]): 444 µg/mL (≈ 921 µM)
Larva Length, Mean Difference (I-J) versus Control (T. pityocampa larvae [2]): -7,845* mm
head capsule width, Mean Difference (I-J) versus Control (T. pityocampa larvae [2]): -1,000* mm
Insect deaths (mortality rate) [4]: below 10%
Insect deaths (mortality rate) [5]: below 10%

EC50 (T. pityocampa AlstR-C): 5.66 µM
Compound: O=C(C[C@@H]1NC(=O)c2ccccc2NC1=O)NCCn1c(=O)c(O)nc2ccccc21 [J100-0311]
LC50 (T. pityocampa larvae [1]; [9]): 411 µg/mL (≈ 975 µM)
LC50 (T. pityocampa larvae [1]; [8]): 412 µg/mL (≈ 977 µM)
LC90 (95% CI) (T. pityocampa larvae [1]; [7]): 6740.368 (2743.061–6.275 × 10^4) mg/L
Larva Length, Mean Difference (I-J) versus Control (T. pityocampa larvae [2]): -8,015* mm
head capsule width, Mean Difference (I-J) versus Control (T. pityocampa larvae [2]): -1,075* mm
Insect deaths (mortality rate) [4]: below 10%
Insect deaths (mortality rate) [5]: below 10%
